Data on 34 molecules can be found in ChEMBL document CHEMBL4138100, “Novel anti-inflammatory agents targeting CXCR4: Design, synthesis, biological evaluation and preliminary pharmacokinetic study” (Eur J Med Chem, 2017).

The source made the active and inactive calls. No cut-off for these calls is given here.

For data set [1], the target named is C-X-C chemokine receptor type 4 (Homo sapiens) (UniProt P61073). Briefly: Inhibition of biotinylated TN14003 binding to CXCR4 in human MDA-MB-231 cells assessed as reduction in fluorescence preincubated for 10 mins followed by biotinylated-TN14003 addition measured after 30 mins by streptavidin-rhodamine staining based immunofluorescence microscopic analysis. Format: cell-based.
Chain of C-X-C chemokine receptor type 4 (Homo sapiens) (P61073 whole entry): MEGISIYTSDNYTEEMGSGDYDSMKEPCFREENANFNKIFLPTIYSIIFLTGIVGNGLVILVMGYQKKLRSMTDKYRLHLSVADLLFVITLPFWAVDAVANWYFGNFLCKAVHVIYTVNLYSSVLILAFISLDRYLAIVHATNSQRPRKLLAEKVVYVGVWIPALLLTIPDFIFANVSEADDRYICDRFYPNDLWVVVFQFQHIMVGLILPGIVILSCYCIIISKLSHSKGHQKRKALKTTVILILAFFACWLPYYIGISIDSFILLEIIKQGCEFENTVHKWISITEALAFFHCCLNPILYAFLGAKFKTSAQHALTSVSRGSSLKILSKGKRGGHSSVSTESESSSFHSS

Data set [2] shares this target. The data set can be described thus: Inhibition of CXCR4-mediated chemotaxis in human MDA-MB-231 cells assessed as inhibition of CXCL12alpha-induced cell invasion at 100 nM after 22 hrs by hematoxylin/eosin dye-based matrigel assay relative to control. Format: functional.
Data set [3] concerns Mus musculus. The data set can be described thus: Antiinflammatory activity in mouse assessed as inhibition of xylene-induced ear edema at 10 mg/kg, ip treated post 30 mins xylene treatment measured at 2 hrs post dose relative to control. The class given is functional.
Data set [4] is described as follows: Stability in nude mouse plasma assessed as parent compound remaining at 30 mg/kg, iv after 5 mins by HPLC analysis. Format: ADME, organism-based. The settings on record: read-out: Stability.
Another data set has as its system MDA-MB-231. The data set can be described thus: Cytotoxicity against human MDA-MB-231 cells assessed as inhibition of cell proliferation at 10 uM after 24 to 72 hrs by MTT assay. The class given is cell-based. The settings on record: mda-mb-231, 10 µM. A general note: Formazan colour is commonly taken as a measure of viable cells.
The nature of data set [5]: Stability in nude mouse plasma assessed as parent compound remaining at 30 mg/kg, iv after 20 mins by HPLC analysis. The settings on record: read-out: Stability. The class given is ADME, organism-based.
Data set [6] in a line: Half life in nude mouse plasma at 30 mg/kg, iv by HPLC analysis. The class given is ADME, organism-based.
Data set [7] has as its system Mus musculus. The data set can be described thus: Antiinflammatory activity in mouse assessed as inhibition of xylene-induced ear thickness at 10 mg/kg, ip treated post 30 mins xylene treatment measured at 2 hrs post dose by histological analysis. The class given is functional, organism-based.
In data set [8] the test system is Mus musculus. The data set can be described thus: Antiinflammatory activity in mouse assessed as inhibition of xylene-induced ear edema volume at 10 mg/kg, ip treated post 30 mins xylene treatment measured at 2 hrs post dose by histological analysis. Format: functional, organism-based.
The subject of data set [9] is CXCR4. The data set can be described thus: Selectivity index, ratio of antiproliferative activity in human MCF10A cells to EC for inhibition of biotinylated TN14003 binding to CXCR4 in human MDA-MB-231 cells. Format: toxicity, cell-based. The settings on record: probe biotinylated TN14003, read-out: Selectivity Index.
Data set [10] can be described thus: Stability in nude mouse plasma assessed as parent compound remaining at 30 mg/kg, iv after 50 mins by HPLC analysis. The class given is ADME, organism-based. The settings on record: read-out: Stability.
A further data set concerns MCF-10A. Briefly: Antiproliferative activity in human MCF10A cells at 10 uM after 24 to 72 hrs by MTT assay. Format: cell-based.
Data set [11] addresses C-X-C chemokine receptor type 4 (Homo sapiens) (UniProt P61073). The data set can be described thus: Inhibition of CXCR4 in human MDA-MB-231 cells assessed as reduction in CXCR4/[…] signaling-mediated Akt Ser473 phosphorylation by Western blot analysis. Format: functional, cell-based. (Immunoblotting shows a protein as a band on a membrane.)
For data set [12], the system named is Mus musculus. Briefly: Antiinflammatory activity in mouse assessed as inhibition of xylene-induced increase in number of inflammatory cells in ear at 10 mg/kg, ip treated post 30 mins xylene treatment measured at 2 hrs post last dose by histological analysis. Format: functional, organism-based.
Data set [13] is described as follows: Stability in nude mouse plasma assessed as parent compound remaining at 30 mg/kg, iv after 1 hr by HPLC analysis. The class given is ADME, organism-based. The settings on record: in vivo.
Data set [14] deals with CXCR4. Briefly: Selectivity index, ratio of antiproliferative activity in human MDA-MB-231 cells to EC for inhibition of biotinylated TN14003 binding to CXCR4 in human MDA-MB-231 cells. The class given is toxicity, cell-based. The settings on record: probe biotinylated TN14003, read-out: Selectivity Index.
Data set [15] deals with C-X-C chemokine receptor type 4 (Homo sapiens) (UniProt P61073). The data set can be described thus: Potency index, ratio of AMD3100 EC to compound EC for inhibition of biotinylated TN14003 binding to CXCR4 in human MDA-MB-231 cells. The class given is functional, cell-based.

Take `O=C(NCc1ccc(CNS(=O)(=O)c2ccccc2)cc1)c1ccccc1F`: the EC in [1] worked out at 1000 nM.

Take `Cc1ccc(S(=O)(=O)NCc2ccc(CNC(=O)c3cccc(C)c3)cc2)cc1`: in data set [1], the EC stood at 1000 nM.

By inhibition is commonly meant the relative decrease from the control value, in per cent. As to `O=C(NCc1ccc(CNS(=O)(=O)c2ccccc2)cc1)c1ccc(Cl)cc1`, in data set [2], the inhibition was below 50%. Besides, the EC in [1] was 100 nM.

With `Cc1ccc(C(=O)NCc2ccc(CNS(=O)(=O)c3ccccc3)cc2)cc1`, the inhibition in data set [2] is below 50%. Moreover, the EC in [1] came to 100 nM.

Regarding `Cc1ccc(S(=O)(=O)NCc2ccc(CNC(=O)c3cccnc3)cc2)cc1`, in data set [1], the EC was above 1000 nM.

For `COc1ccc(C(=O)NCc2ccc(CNS(=O)(=O)c3ccccc3)cc2)cc1`, the EC in data set [1] turned out to be 1000 nM.

`O=C(NCc1ccc(CNS(=O)(=O)c2ccccc2)cc1)c1cccc(F)c1`: the inhibition in [2] is above 60%. In [1], the EC came to 100 nM.

For orientation: inhibition in vivo means the change of the read-out against control, counted positive when it falls. `O=C(NCc1ccc(CNS(=O)(=O)c2ccccc2)cc1)c1cccnc1`: the inhibition in vivo at 10 mg/kg in the data set on Mus musculus [3] came out at 53%. The inhibition in data set [2] was above 60%. For the same molecule, in data set [1], the EC is 10 nM.

Turning to `Cc1ccc(S(=O)(=O)NCc2ccc(CNC(=O)c3ccncc3)cc2)cc1`, the inhibition in data set [2] was found to be 55%. Further, the EC in data set [1] worked out at 10 nM.

In general, half-life refers to how long it takes for the measured level to halve. A low value points to fast loss. On to `Cc1ccc(S(=O)(=O)NCc2ccc(CNC(=O)c3ccc(F)cc3)cc2)cc1`, for which the remaining at 5 min in data set [4] was 100%. The Activity entry in the data set with MDA-MB-231 and with MCF-10A was “Non-Toxic” in each case. Further, the remaining at 20 min in data set [5] came out at 65%. For the same molecule, in data set [6], the half-life came to 40 min. The inhibition result with Mus musculus [7], in the data set on Mus musculus [8] and in the data set with Mus musculus [12] was “Active” each time. In addition, the inhibition in vivo at 10 mg/kg in the data set with Mus musculus [3] was 75%. Moreover, the selectivity ratio in the data set with CXCR4 [9] and in the data set on CXCR4 [14] was 1000 throughout. The remaining at 50 min in data set [10] was 45%. For the same molecule, the inhibition in data set [2] is above 60%; in [11] it was “Dose-dependent effect”. For the same molecule, in data set [1], the EC stood at 1 nM. Further, the Stability entry in [13] was “Stable”.

Take `O=C(NCc1ccc(CNS(=O)(=O)c2ccccc2)cc1)c1ccc([N+](=O)[O-])cc1`: the inhibition in data set [2] came to 55%. The EC in [1] was 100 nM.

Consider `COc1ccccc1C(=O)NCc1ccc(CNS(=O)(=O)c2ccccc2)cc1`, for which the inhibition result in the data set with Mus musculus [3] is “inactive”. Further, in data set [2], the inhibition was above 90%. For the same molecule, the EC in data set [1] stood at 1 nM. Moreover, in data set [15], the Ratio is 1000.

In the case of `Cc1ccc(S(=O)(=O)NCc2ccc(CNC(=O)c3cccc(Cl)c3)cc2)cc1`, the inhibition in vivo at 10 mg/kg in the data set with Mus musculus [3] worked out at 57%. Moreover, the inhibition in [2] is above 60%. Besides, in [1], the EC was determined as 100 nM.

Regarding `Cc1ccc(S(=O)(=O)NCc2ccc(CNC(=O)c3ccc([N+](=O)[O-])cc3)cc2)cc1`, in [2], the inhibition was 55%. The EC in data set [1] came to 10 nM.

With `COc1cccc(C(=O)NCc2ccc(CNS(=O)(=O)c3ccc(C)cc3)cc2)c1`, the inhibition in vivo at 10 mg/kg in the data set on Mus musculus [3] stood at 28%. For the same molecule, the inhibition in data set [2] was above 90%. For the same molecule, in data set [1], the EC was 10 nM.

As to `Cc1ccccc1C(=O)NCc1ccc(CNS(=O)(=O)c2ccccc2)cc1`, the inhibition result in the data set with Mus musculus [3] is “inactive”. Besides, the inhibition in data set [2] was above 90%. The EC in data set [1] was 1 nM. Further, the Ratio in [15] came out at 1000.

Take `Cc1ccc(S(=O)(=O)NCc2ccc(CNC(=O)c3ccccc3C)cc2)cc1`: in data set [2], the inhibition was below 50%. Moreover, in data set [1], the EC is 100 nM.

For the molecule `COc1ccc(C(=O)NCc2ccc(CNS(=O)(=O)c3ccc(C)cc3)cc2)cc1`, the inhibition in data set [2] came to 55%. Further, the EC in data set [1] stood at 100 nM.

`O=C(NCc1ccc(CNS(=O)(=O)c2ccccc2)cc1)c1cccc(Cl)c1`: the EC in [1] was 1000 nM.

In the case of `Cc1ccc(S(=O)(=O)NCc2ccc(CNC(=O)c3cccc(F)c3)cc2)cc1`, the inhibition in data set [2] is 55%. Also, the EC in data set [1] was found to be 1 nM. Also, the Ratio in [15] came out at 1000.

Turning to `Cc1ccc(C(=O)NCc2ccc(CNS(=O)(=O)c3ccc(C)cc3)cc2)cc1`, the EC in [1] was 1000 nM.

`O=C(NCc1ccc(CNS(=O)(=O)c2ccccc2)cc1)c1ccccc1`: the inhibition in vivo at 10 mg/kg in the data set on Mus musculus [3] worked out at 62%. Further, in data set [2], the inhibition is above 60%. Further, the EC in [1] was 1 nM. The Ratio in data set [15] worked out at 1000.

Regarding `O=C(NCc1ccc(CNS(=O)(=O)c2ccccc2)cc1)c1c(Cl)cc(Cl)cc1Cl`, in the data set with Mus musculus [3], the inhibition entry is “inactive”. Besides, the inhibition in data set [2] is above 60%. Also, the EC in [1] was 10 nM.

Regarding `COc1ccccc1C(=O)NCc1ccc(CNS(=O)(=O)c2ccc(C)cc2)cc1`, in the data set on Mus musculus [3], the inhibition entry is “inactive”. The inhibition in [2] is above 90%. The EC in data set [1] was determined as 100 nM.

For `Cc1ccc(S(=O)(=O)NCc2ccc(CNC(=O)c3ccccc3Cl)cc2)cc1`, the inhibition in vivo at 10 mg/kg in the data set with Mus musculus [3] amounted to 26%. In addition, the inhibition in [2] is above 90%. Also, in data set [1], the EC is 10 nM.

On to `O=C(NCc1ccc(CNS(=O)(=O)c2ccccc2)cc1)c1ccccc1Cl`, for which, in the data set on Mus musculus [3], the inhibition entry was “inactive”. In addition, the inhibition in [2] is above 60%. In addition, the EC in data set [1] is 10 nM.

`Cc1ccc(S(=O)(=O)NCc2ccc(CNC(=O)c3ccc(Cl)cc3)cc2)cc1`: in the data set on Mus musculus [3], the inhibition in vivo at 10 mg/kg is 50%. The inhibition in data set [2] is above 60%. The EC in data set [1] is 10 nM.

Turning to `COc1cccc(C(=O)NCc2ccc(CNS(=O)(=O)c3ccccc3)cc2)c1`, the EC in data set [1] is above 1000 nM.

Regarding `Cc1ccc(S(=O)(=O)NCc2ccc(CNC(=O)c3c(Cl)cc(Cl)cc3Cl)cc2)cc1`, in data set [2], the inhibition amounted to 55%. The EC in data set [1] worked out at 10 nM.

Take `Cc1ccc(S(=O)(=O)NCc2ccc(CNC(=O)c3ccccc3F)cc2)cc1`: the EC in data set [1] came out at 1000 nM.

Take `O=C(NCc1ccc(CNS(=O)(=O)c2ccccc2)cc1)c1ccncc1`: the inhibition in vivo at 10 mg/kg in the data set on Mus musculus [3] is 40%. Also, the inhibition in data set [2] is above 60%. Moreover, the EC in data set [1] came to 10 nM.

On to `O=C(NCc1ccc(CNS(=O)(=O)c2ccccc2)cc1)c1ccc(F)cc1`, for which the inhibition in vivo at 10 mg/kg with Mus musculus [3] was 40%. Also, in data set [2], the inhibition is above 60%. Besides, the EC in data set [1] was 100 nM.

Turning to `Cc1cccc(C(=O)NCc2ccc(CNS(=O)(=O)c3ccccc3)cc2)c1`, the EC in [1] was found to be 1000 nM.

Take `Cc1ccc(S(=O)(=O)NCc2ccc(CNC(=O)c3ccccc3)cc2)cc1`: the EC in data set [1] is above 1000 nM.
